Data set [1] can be described thus: Dissociation constant, pKa of the compound. In kind it is physicochemical.
Data set [2] can be described thus: Intrinsic clearance in human hepatocytes assessed per million cells. In kind it is ADME, cell-based, Hepatocyte. The note with it: read-out: CLH.
Data set [3] can be described thus: Intrinsic clearance in human liver microsomes. In kind it is ADME, microsome. The following applies: read-out: CLH. Background: Liver microsomes are vesicles of endoplasmic reticulum, rich in cytochrome P450 enzymes.
Data set [4] is described as follows: Clearance in rat blood. Type of data set: ADME.
Data set [5] in a line: Oral bioavailability in rat. In kind it is ADME, organism-based. The note with it: in vivo.

This note sets out measurements from ChEMBL document CHEMBL3992487 (Medchemcomm, 2016).

Broadly, the pKa is the negative logarithm of the acid dissociation constant. A low value points to a stronger acid or weaker base. As to `COC[C@@](C)(N)c1nc(-c2ccc(OC(F)(F)F)cc2)c[nH]1`, the pKa in data set [1] came to 7.1. Turning to `NC(CF)(CF)c1nc(-c2ccc(OC(F)(F)F)cc2)c[nH]1`, in data set [1], the pKa is 5.9. The molecule `CC(C)(N)c1nc(-c2ccc(OC(F)(F)F)cc2)c[nH]1` returned a pKa in data set [1] of 7.9. For the same molecule, in data set [2], the hepatocyte CLint was less than 6 µL/min/1e6 cells. Also, the microsomal CLint in data set [3] was determined as 8 µL/min/mg.

As a reminder, the clearance is a measure of how efficiently the substance is removed, as volume per time. For orientation: bioavailability means the share of a dose that reaches the circulation, judged against a reference dose that is usually intravenous. The molecule `NC1(Cc2nc(-c3ccc(OC(F)(F)F)cc3)c[nH]2)COC1` displayed a pKa in data set [1] of 6.4. Also, the clearance in data set [4] was found to be 5 mL/min/kg. In data set [5], this molecule registered a bioavailability of 49 to 52%. Regarding `C[C@](N)(CF)c1nc(-c2ccc(OC(F)(F)F)cc2)c[nH]1`, the pKa in data set [1] worked out at 6.4.
